We go through four molecules from patent publication US11952610B2, “Digital microbiology” (priority 2016, dated 2024).

≈ marks a conversion by molar mass, not a printed value. Like-named read-outs stand apart in the source and are kept apart here.

Data set [1] has as its system S. aureus ATCC®29213™. Description: Antimicrobial susceptibility testing in water-in-oil droplets, microscope reading. The data set is classed as cell-based, Staphylococcus aureus. How it is done:
(§1) (at 30° C. for the C. albicans).

The test system of a further data set is MRSA ATCC BAA 2312. Description: Droplets with labeled anti-PBP2a antibody, BSA +/- cefoxitin: growth and labeling. As to conditions: 3 h at 37° C. The data set is classed as cell-based, Staphylococcus aureus. The method, then:
In another experiment, an anti-PBP2a antibody (Biosource clone M0071933) that recognizes PBP2a indicative of the resistance against methicillin in Staphylococcus aureus (SA) was labeled using Kit Lynx LNK174PETR (Abd Serotec). […] After incubation at 37° C. for 3 hours, the samples were read using the ZOE™ Fluorescent Cell Imager (Bio-Rad Laboratories). The tables below show growth (visible) and labeling (fluorescence) obtained for the tested strains of MSSA and MRSA.

Data set [2] concerns S. aureus ATCC®29213™. The conditions noted are these: cited from earlier work.
In data set [3] the test system is S. aureus ATCC®43300™. The conditions noted are these: cited from earlier work.
Data set [4] concerns S. aureus ATCC®43300™. Description: Antimicrobial susceptibility testing in water-in-oil droplets, strain with or without induction of resistance. The conditions noted are these: for MIC: Staphylococcus aureus.
Method: They comprised Escherichia coli (ATCC®25922™), Staphylococcus aureus (ATCC®29212™), Enterococcus faecalis (ATCC®29212™) and Candida albicans (ATCC®24433™). […] This strain is known to carry an heterogeneous resistance phenotype was also used with or without induction with cephalosporins.
Each strain was stored as −80° C. frozen stock. Except when indicated, after overnight cultures in Trypto-casein-soy broth (TCS; Bio-Rad, Marnes 1a Coquette, France), all bacterial strains were started from the same adjusted turbidity which was equivalent to 1:100 of a 0.5 McFarland in TCS. For the Candida albicans, the starting turbidity was equivalent to a 1:10 of a 0.1 McFarland.
Droplets were prepared according to the manufacturer instructions (Bio-Rad) using QX200™ Droplet Generation Oil for EvaGreen (+surfactant) with the mixing parameters adjusted for sample volume and approximate number of microorganisms. Turbidity adjusted cultures were diluted in aqueous-phase reagents with a known concentration of antibiotic or antifungal agents in a 1:1 ratio of TCS culture to aqueous phase reagents (v/v, 10 μL/10 μL).
As soon as the droplets were prepared, the cartridges, protected by an adhesive film, were directly incubated at 37° C. (at 30° C. for the C. albicans).
After 4 and 6 hours of incubation, droplets were pipetted and introduced into cell counting slides (Bio-Rad). The microorganisms were then observed in the droplets using a microscope (objective 100× or 400×). The approximate counts of droplets carrying microorganisms as their growth inside the droplets were reported.
The minimal inhibitory concentration (MIC) was determined as the lowest concentration of an antimicrobial agent that prevents visible growth of a microorganism (i.e. a total absence of bacteria or a total absence of fungal growth observable in droplets using the microscope).
The next data set relates to bacteria or yeast. Description: Turbidity of a culture over time in the presence and absence of PI. The data set is classed as cell-based. The conditions noted are these: presence vs absence of PI. How it is done: FIGS. 13A and 13B are a sample of SA+PI without FOX after 6 h of incubation. FIGS. 14A-14C are SA+PI+0.25 mg/L FOX after 6 h of incubation. FIGS. 15A-15C are SA+PI+0.5 mg/L FOX after 6 h of incubation. FIGS. 16A-16C are SA+PI+4 mg/L FOX after 6 h of incubation. PI is excluded from viable cells and penetrates the cell membranes of dead or dying cells. […] Intercalating agents are considered toxic for cell growth because they react with DNA, blocking the replication of the cells.

The test system of data set [5] is E. faecalis ATCC®29212™. The data set is described as follows: Antimicrobial susceptibility testing in water-in-oil droplets, microscope reading. The data set is classed as cell-based, Enterococcus faecalis. The method, then:
as §1

The subject of data set [6] is E. faecalis ATCC®29212™. As to conditions: cited from earlier work.
Data set [7] concerns Erotium rubrum CECT 20807. Description: Inhibition of mold growth outside the droplet aqueous phase, antifungal in oil phase. The data set is classed as cell-based. How it is done:
(§2) Usual foodborne mold strains were grown until the sporulation state (usually for 5 to 7 days) on the appropriate culture medium at 28° C. Spores were then scraped into 0.05% Tween 80 sterile solution. The collected suspensions were filtered on several layers of gauze compressed to eliminate most of the hyphae and mycelium fragments. When necessary, the suspensions were kept under stirring in the dark and at room temperature before the filtration step to ensure optimal spore release from the fungal structures. The spore concentration was determined in a hemocytometer chamber and/or by plating on agar Petri plates.
(§3) The suspensions were then centrifuged for 5 minutes at 10.000 rpm and the supernatants discarded. The pellets were resuspended with the appropriate volume of YGC broth containing 30% of glycerol and the aliquots were stored at −20° C. for up to 6 months.
(§4) Aliquots were thawed at room temperature and washed once in YGC broth to remove glycerol. The spores were then diluted to the concentration of 10^5 spores/mL in YGC broth containing 5% of Pluronic F68 surfactant.
(§5) Dicloran stock solution was prepared at 40 mg/mL in acetone. The stock solution was then diluted to produce working solutions according to table below.
(§6) A volume of 10 μL of the appropriate working solution was then added to 2 mL of Oil for Eva Green to reach the targeted final concentrations (0.5% v/v) (see the table below).
(§7) For droplet generation using the QX200™ Droplet generator, the ‘sample’ and ‘oil’ wells of a DG8 cartridge were respectively filled with […], of the prepared spore suspension (with or without CFDA) and 70 μL of the Oil for Eva Green (with or without Dicloran). After the generation process, the droplet emulsions (30-35 μL/well) were transferred to a 96-well Eppendorf plate and placed at 28° C. for 24 to 48 hours.

Data set [8] deals with Mucor racemosus CECT 20821. The description is as above. The data set is classed as cell-based. The conditions noted are these: YCG broth, 48 hours. The method, then:
as §2, §3, §4, §5, §6, §7

In data set [9] the test system is usual foodborne mold strains. The description is as above. The data set is classed as cell-based. As to conditions: 40 to 100 mg/L in the oil for EvaGreen, 28° C., 24 to 48 hours. How it is done: as §2, §3, §4, §5, §6, §7
Data set [10] relates to Aspergillus restrictus CECT 20807. The description is as above. The data set is classed as cell-based. As to conditions: YCG broth.
The subject of data set [11] is Penicillium hirsutum ATCC 16025. Described as above. The data set is classed as cell-based. As to conditions: 80 mg/L in the oil phase, YCG broth, 24 hours.
Data set [12] has as its system Fusarium graminearum DSM 1096. The data set is classed as cell-based. The conditions noted are these: 100 mg/L in the oil phase, YCG broth, 48 hours.

With `CO[C@@]1(NC(=O)Cc2cccs2)C(=O)N2C(C(=O)O)=C(COC(N)=O)CS[C@@H]21` [Cefoxitin], the “Growth in % of droplets” value in the data set on S. aureus ATCC®29213™ [1] (0.5 mg/L, reading time 4 h) is 20-30% of droplets; in the data set with S. aureus ATCC®29213™ [1] (1 mg/L, reading time 4 h) it was ~20% of droplets; in the data set on S. aureus ATCC®29213™ [1] (1 mg/L, reading time 6 h) it was “Growth in <50% of”. Also, the “Growth in droplets (observation in words)” value (shortened to “Growth in droplets”) in the data set on S. aureus ATCC®29213™ [1] (2 mg/L, reading time 4 h) was “No growth”; in the data set on S. aureus ATCC®29213™ [1] (2 mg/L, reading time 6 h) it was “No growth”; in the data set with S. aureus ATCC®43300™ [4] (4 mg/L, 4 h w/o induction), “No growth”; in the data set with S. aureus ATCC®43300™ [4] (4 mg/L, 4 h with induction), “Limited growth”; in the data set with S. aureus ATCC®43300™ [4] (4 mg/L, 6 h w/o induction), “Limited growth (few”; in the data set with S. aureus ATCC®43300™ [4] (4 mg/L, 6 h with induction) it was “Limited growth”. The “Growth in droplets” value in the data set with S. aureus ATCC®43300™ [4] (8 mg/L, 4 h with induction) is recorded as “Limited growth in few”; in the data set with S. aureus ATCC®43300™ [4] (8 mg/L, 6 h w/o induction), “No growth”; in the data set with S. aureus ATCC®43300™ [4] (8 mg/L, 6 h with induction) it was 1 droplet with cells; with S. aureus ATCC®43300™ [4] (16 mg/L, 4 h with induction), “Very limited growth”; in the data set on S. aureus ATCC®43300™ [4] (16 mg/L, 6 h with induction) it was “No growth”; with S. aureus ATCC®43300™ [4] (32 mg/L, 4 h with induction), “No growth”. Moreover, the MIC in the data set with S. aureus ATCC®29213™ [1] (Staphylococcus aureus, ATCC29213, droplets at 37° C., read after 4 and 6 h, read-out: Observed MIC) is 2 µg/mL (≈ 4.68 µM); in the data set with S. aureus ATCC®43300™ [4] (ATCC43300, read-out: Observed MIC, using non induced strain) it was 2 to 4 µg/mL (≈ 4.68 to 9.36 µM); with S. aureus ATCC®43300™ [4] (ATCC43300, read-out: Observed MIC, with induced strain), 16 to 32 µg/mL (≈ 37.4 to 74.9 µM). Further, the “Growth (visible)” value in the data set with MRSA ATCC BAA 2312 (BSA 0 + FOX 2 mg/L) is “Growth +<”; with MRSA ATCC BAA 2312 (BSA 2.5% + FOX 2 mg/L), “Growth +>”. Besides, the “Expected MIC (CLSI)” value with S. aureus ATCC®29213™ [2] was 1 to 4 µg/mL. Further, the “Expected MIC (JCM)” value with S. aureus ATCC®43300™ [3] is 16 to 32 µg/mL.
Turning to `CC[N+](C)(CC)CCC[n+]1c(-c2ccccc2)c2cc(N)ccc2c2ccc(N)cc21.[I-].[I-]` [PI, propidium iodide], in the data set on bacteria or yeast, the “Impact on growth of bacteria or yeast” value was “only a limited impact”.
As to `CN[C@H](CC(C)C)C(=O)N[C@H]1C(=O)N[C@@H](CC(N)=O)C(=O)N[C@H]2C(=O)N[C@H]3C(=O)N[C@H](C(=O)N[C@H](C(=O)O)c4cc(O)cc(O)c4-c4cc3ccc4O)[C@H](O)c3ccc(c(Cl)c3)Oc3cc2cc(c3O[C@@H]2O[C@H](CO)[C@@H](O)[C@H](O)[C@H]2O[C@H]2C[C@](C)(N)[C@H](O)[C@H](C)O2)Oc2ccc(cc2Cl)[C@H]1O` [Vancomycin], the “Growth in % of droplets” value in the data set on S. aureus ATCC®29213™ [1] (0.25 mg/L, reading time 4 h) is on record as 25-50% of droplets; in the data set on S. aureus ATCC®29213™ [1] (0.25 mg/L, reading time 6 h) it was ~50% of the droplets; with S. aureus ATCC®29213™ [1] (0.5 mg/L, reading time 6 h), ~10% of droplets; in the data set with E. faecalis ATCC®29212™ [5] (0.25 mg/L, reading time 4 h), “Growth in 25-50%”; in the data set on E. faecalis ATCC®29212™ [5] (0.25 mg/L, reading time 6 h), “Growth in 20-50%”; in the data set with E. faecalis ATCC®29212™ [5] (0.5 mg/L, reading time 4 h) it was “Growth in 25-30%”. Further, the “Growth in % of droplets” value with E. faecalis ATCC®29212™ [5] (0.5 mg/L, reading time 6 h) is recorded as ~30% of droplets; in the data set on E. faecalis ATCC®29212™ [5] (1 mg/L, reading time 6 h), “Growth in 20-30%”. Further, the “Growth in droplets” value in the data set on S. aureus ATCC®29213™ [1] (0.5 mg/L, reading time 4 h) is given as 1 droplet with cells; with S. aureus ATCC®29213™ [1] (1 mg/L, reading time 6 h) it was “No growth”; in the data set with E. faecalis ATCC®29212™ [5] (1 mg/L, reading time 4 h), “Limited growth in”; with E. faecalis ATCC®29212™ [5] (2 mg/L, reading time 4 h), “No growth”; with E. faecalis ATCC®29212™ [5] (2 mg/L, reading time 6 h), “No growth”. Also, the “Expected MIC (CLSI)” value was 0.25 to 1 µg/mL in the data set with S. aureus ATCC®29213™ [2] and 1 to 4 µg/mL with E. faecalis ATCC®29212™ [6].
As for `Nc1c(Cl)cc([N+](=O)[O-])cc1Cl` [dicloran, 2,6-dichloro-4-nitroaniline], the “Mold growth outside the aqueous phase” value in data set [7] (60 mg/L in the oil phase, YCG broth, 24 hours) is listed as “inhibition of mold growth outside the aqueous phase”; in data set [7] (80 mg/L in the oil phase, 5,6 carboxyfluorescein diacetate (25 mg/L) in the broth), “inhibition of Erotium rubrum CECT 20807 growth outside the aqueous phase”; in data set [7] (80 mg/L in the oil phase, YCG broth, 48 hours) it was “inhibition of mold growth outside the aqueous phase”; in data set [8] (40 mg/L in the oil phase), “inhibition of mold growth outside the aqueous phase”; in data set [8] (60 mg/L in the oil phase), “inhibition of mold growth outside the aqueous phase”; in [10] (80 mg/L in the oil phase, 24 hours) it was “inhibition of mold growth outside the aqueous phase”. Also, the “Mold growth outside the aqueous phase” value in data set [10] (100 mg/L in the oil phase, 48 hours) is reported as “inhibition of mold growth outside the aqueous phase”; in data set [11], “inhibition of mold growth outside the aqueous phase”; in data set [12], “inhibition of mold growth outside the aqueous phase”. In addition, the “Hyphae spreading and mold growth outside the droplet” value in [9] was “the hyphae spreading was inhibited and mold growth was confined within the droplet”.

In general, MIC refers to the lowest concentration that inhibits growth of the organism.
